# pIC50: −log10 of the molar value.
# Molecular target: JAK3-JH1JH2 (Homo sapiens (Human), UniProt P52333)
# Assay: Enzymatic inhibition assay (RapidFire HTMS), JAK3
# Assay type: biochemical
# Conditions: 150 μM ATP, 40 μM substrate
# How it was run: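 JAK3 JH1JH2 reaction incubated 45 min at 25 °C, then quenched with 0.5% TFA containing 0.15 μM internal standard peptide. Phosphopeptide product measured by RapidFire C4 SPE–ESI MS (positive mode); inhibition from product decrease versus uninhibited enzyme, 11-point 1:3 or 1:4 dilutions in duplicate.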
# Sequence of JAK3-JH1JH2 (P52333 512-1124): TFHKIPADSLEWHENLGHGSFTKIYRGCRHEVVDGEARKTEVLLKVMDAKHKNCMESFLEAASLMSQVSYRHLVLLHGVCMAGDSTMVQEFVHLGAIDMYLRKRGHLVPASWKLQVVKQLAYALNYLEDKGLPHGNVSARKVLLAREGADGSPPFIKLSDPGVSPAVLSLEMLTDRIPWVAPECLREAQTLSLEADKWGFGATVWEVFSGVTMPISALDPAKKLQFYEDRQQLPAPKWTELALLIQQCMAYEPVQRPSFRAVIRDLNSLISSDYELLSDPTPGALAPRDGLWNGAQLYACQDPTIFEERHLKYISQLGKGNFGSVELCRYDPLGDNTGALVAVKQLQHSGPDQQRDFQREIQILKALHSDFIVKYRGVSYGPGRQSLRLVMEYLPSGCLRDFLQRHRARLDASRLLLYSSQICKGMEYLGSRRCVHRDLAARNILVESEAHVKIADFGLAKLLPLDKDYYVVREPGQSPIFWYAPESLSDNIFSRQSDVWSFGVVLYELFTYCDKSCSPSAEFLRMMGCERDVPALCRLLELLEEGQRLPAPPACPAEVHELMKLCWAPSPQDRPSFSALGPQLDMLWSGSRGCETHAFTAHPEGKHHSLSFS
row,Compound,pIC50
1,"CC(C)(O)CNC(=O)Cc1nc2cnc3[nH]ccc3c2n1[C@H]1CC[C@H](CC#N)CC1 [Ex. 1, 2-(1-((1r,4r)-4-(Cyanomethyl)cyclohexyl)-1,6-dihydroimidazo[4,5-d]pyrrolo[2,3-b]pyridin-2-yl)-N-(2-hydroxy-2-methylpropyl)acetamide]",7.06
2,"CC(C)(C#N)CNC(=O)Cc1nc2cnc3[nH]ccc3c2n1[C@H]1CC[C@H](CC#N)CC1 [Ex. 22, N-(2-Cyano-2-methylpropyl)-2-(1-((1r,4r)-4-(cyanomethyl)cyclohexyl)-1,6-dihydroimidazo[4,5-d]pyrrolo[2,3-b]pyridin-2-yl)acetamide]",7.03
3,"N#CC[C@H]1CC[C@H](n2c(CC(=O)NCC3(O)CCC3)nc3cnc4[nH]ccc4c32)CC1 [Ex. 34, 2-(1-((1r,4r)-4-(Cyanomethyl)cyclohexyl)-1,6-dihydroimidazo[4,5-d]pyrrolo[2,3-b]pyridin-2-yl)-N-((1-hydroxycyclobutyl)methyl)acetamide]",7.37
4,"N#CCC12CCC(NC(=O)Cc3nc4cnc5[nH]ccc5c4n3[C@H]3CC[C@H](CC#N)CC3)(CC1)C2 [Ex. 55, N-(4-(Cyanomethyl)bicyclo[2.2.1]heptan-1-yl)-2-(1-((1r,4r)-4-(cyanomethyl)cyclohexyl)-1,6-dihydroimidazo[4,5-d]pyrrolo[2,3-b]pyridin-2-yl)acetamide]",7.22
5,"N#CC[C@H]1CC[C@H](n2c(CC(=O)NCC3(O)CC3)nc3cnc4[nH]ccc4c32)CC1 [Ex. 85, 2-(1-((1r,4r)-4-(Cyanomethyl)cyclohexyl)-1,6-dihydroimidazo[4,5-d]pyrrolo[2,3-b]pyridin-2-yl)-N-((1-hydroxycyclopropyl)methyl)acetamide]",7.17

# Tested on: MDCK-MDR1 cell line
# Assay: MDCK-MDR1 permeability assay
# Assay type: in vitro ADME
# Conditions: @ 5 μM, apical to basolateral, with P-gp inhibitor elacridar (2 μM)
# Protocol: Permeability measurements were conducted according to the Cyprotex protocol using the MDCK-MDR1 cell line obtained from the NIH (Rockville, Md., USA). Cells between passage numbers 6-30 were seeded onto a Multiscreen Plate™ (Millipore) at a cell density of 3.4×10^5 cells/cm^2 and cultured for three days before permeability studies were conducted. The cells in this assay form a cohesive sheet of a single cell layer filing the surface area of the culture dish, also known as a confluent monolayer, and on day four the test compound was added to the apical side of the membrane and the transport of the compound across the monolayer was monitored over a time period of 60 min.
# Test compounds were dissolved in DMSO at a concentration of 10 mM. The dosing solutions were prepared by diluting test compound with assay buffer (Hanks Balanced Salt Solution), pH 7.4, at a final concentration of 5 μM. For assessment of apical to basolateral (“A-B”) permeability, buffer was removed from the apical compartment and replaced with test compound dosing solution with or without the permeability glycoprotein (“PgP”, “P-gP”, “Pgp” or “P-gp”) inhibitor elacridar (2 μM). For assessment of basolateral to apical (“B-A”) permeability, buffer was removed from the companion plate and replaced with test compound dosing solution. Incubations were carried out in duplicate at 37° C. in an atmosphere of 5% CO2 with a relative humidity of 95%. Each assay included the reference markers propranolol (high permeability) and prazosin (PgP substrate). After incubation for 60 minutes, apical and basolateral samples were diluted and test compounds quantified by LC/MS/MS using an 8-point calibration in the range 0.0039 to 3 μM with appropriate dilution of the samples (receiver dilution factor=1; donor and C0 dilution factor=10). The permeability coefficient (Papp) for each compound was calculated from the following equation: Papp=(dQ/dt)/(C0×S), where dQ/dt is the rate of permeation of the drug across the cells, C0 is the donor compartment concentration at time zero, and S is the area of the cell monolayer.
# The second and third columns in Table 7 show the values of Papp(A-B) for the apical-to-basolateral compound transport without (second column) and with a P-gp inhibitor (third column, noted as P^eapp(A-B)) that was elacridar. Papp(A-B) gives an indication of permeation extent across the cells in this assay, which is envisaged to model the transcellular transport across Pgp-expressing cells, such as Pgp-expressing gastrointestinal tract cells. P^eapp(A-B) values (Papp(A-B) in the presence of the P-gp inhibitor) given in column 3 are determined to confirm the role of P-gp in the compound efflux. […] Test compound efflux ratios are given in the fifth column of Table 7 as Papp(B-A)/Papp(A-B) by using the corresponding permeability coefficient values from the fourth and second columns in the same table.
row,Compound,MDCK-MDR1 P^eapp(A-B)
1,"N#CC[C@H]1CC[C@H](n2c(CC(=O)NC3CCOCC3)nc3cnc4[nH]ccc4c32)CC1 [Ex. 5, 2-(1-((1r,4r)-4-(Cyanomethyl)cyclohexyl)-1,6-dihydroimidazo[4,5-d]pyrrolo[2,3-b]pyridin-2-yl)-N-(tetrahydro-2H-pyran-4-yl)acetamide]",0.5 10^−6 cm/sec
